Values joined by “and” are separate entries in the source; they are usually repeats but may differ in a detail not shown here. Equal values may be shown once.
Test system: 242566-281-R-J2-PDC complex spheroid viability
Experiment: Anticancer human tumor 242566-281-R-J2-PDC patient-derived pancreatic carcinoma cell line growth inhibition [CLK]
Settings: for viability, T/C: stronger effect = lower value
Outline: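 Multi-cell-type spheroids combined patient-derived tumor cells with HUVEC endothelial cells and human mesenchymal stem cells. Paired agents were dosed in half-log steps down from about clinical Cmax, or from 10 microM where Cmax was unknown.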

[1] = curve of first compound, second compound 0.0316 µM
[2] = curve of first compound, second compound 0.1 µM
[3] = curve of first compound, second compound 0.316 µM
[4] = curve of first compound, second compound 1 µM
[5] = curve of first compound, second compound 3.16 µM
[6] = curve of first compound, second compound 10 µM
[7] = second compound 0.0316 µM, first compound 0.0316 µM
[8] = second compound 0.0316 µM, first compound 0.1 µM
[9] = second compound 0.0316 µM, first compound 0.316 µM
[10] = second compound 0.0316 µM, first compound 1 µM
[11] = second compound 0.1 µM, first compound 0.0316 µM
[12] = second compound 0.1 µM, first compound 0.1 µM
[13] = second compound 0.1 µM, first compound 0.316 µM
[14] = second compound 0.1 µM, first compound 1 µM
[15] = second compound 0.316 µM, first compound 0.0316 µM
[16] = second compound 0.316 µM, first compound 0.1 µM
[17] = second compound 0.316 µM, first compound 0.316 µM
[18] = second compound 0.316 µM, first compound 1 µM
[19] = second compound 1 µM, first compound 0.0316 µM
[20] = second compound 1 µM, first compound 0.1 µM
[21] = second compound 1 µM, first compound 0.316 µM
[22] = second compound 1 µM, first compound 1 µM
[23] = second compound 3.16 µM, first compound 0.0316 µM
[24] = second compound 3.16 µM, first compound 0.1 µM
[25] = second compound 3.16 µM, first compound 0.316 µM
[26] = second compound 3.16 µM, first compound 1 µM
[27] = second compound 10 µM, first compound 0.0316 µM
[28] = second compound 10 µM, first compound 0.1 µM
[29] = second compound 10 µM, first compound 0.316 µM
[30] = second compound 10 µM, first compound 1 µM
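Note: spheroids exposed to compounds for 7 days before readout.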
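Throughout, for viability, T/C: 100% = DMSO vehicle control wells.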

COc1ccc([C@@H](O)c2cc(-c3ncnc4cc(N5CCOCC5)ccc34)c(F)cc2Cl)nn1 + CN1CCN(c2cc(C(=O)Nc3cc4cc(-c5cnn(C)c5)ccc4cn3)ccn2)CC1
IC50 [1]: > 10000 nM | IC50 [2]: 6170 nM | IC50 [3]: < 31.6 nM | IC50 [4]: < 31.6 nM | IC50 [5]: < 31.6 nM | IC50 [6]: < 31.6 nM | viability, T/C [7]: 106% | viability, T/C [8]: 104% | viability, T/C [9]: 90.4% | viability, T/C [10]: 87% | viability, T/C (second compound 0.0316 µM, first compound 3.16 µM): 70.3% | viability, T/C (second compound 0.0316 µM, first compound 10 µM): 50.1% | viability, T/C [11]: 97.9% | viability, T/C [12]: 85% | viability, T/C [13]: 80.1% | viability, T/C [14]: 73.6% | viability, T/C (second compound 0.1 µM, first compound 3.16 µM): 67.5% | viability, T/C (second compound 0.1 µM, first compound 10 µM): 38.8% | viability, T/C [15]: 30.2% | viability, T/C [16]: 22.3% | viability, T/C [17]: 26.9% | viability, T/C [18]: 20.3% | viability, T/C (second compound 0.316 µM, first compound 3.16 µM): 25% | viability, T/C (second compound 0.316 µM, first compound 10 µM): 11.8% | viability, T/C [19]: 5.5% | viability, T/C [20]: 4.93% | viability, T/C [21]: 4.05% | viability, T/C [22]: 4.46% | viability, T/C (second compound 1 µM, first compound 3.16 µM): 4.87% | viability, T/C (second compound 1 µM, first compound 10 µM): 5.56% | viability, T/C [23]: 6.52% | viability, T/C [24]: 6.92% | viability, T/C [25]: 5.95% | viability, T/C [26]: 6.56% | viability, T/C (second compound 3.16 µM, first compound 3.16 µM): 7.75% | viability, T/C (second compound 3.16 µM, first compound 10 µM): 6.44% | viability, T/C [27]: 1.12% | viability, T/C [28]: 1.29% | viability, T/C [29]: 1.09% | viability, T/C [30]: 1.69% | viability, T/C (second compound 10 µM, first compound 3.16 µM): 2.12% | viability, T/C (second compound 10 µM, first compound 10 µM): 1.23%

COC1C=CCC(C)C(C)S(=O)(=O)NC(=O)c2ccc3c(c2)N(CC2CCC21)CC1(CCCc2cc(Cl)ccc21)CO3 (stereo unspecified)
viability, T/C (compound 0.0316 µM): 91.1% and 108% | viability, T/C (compound 0.1 µM): 69.8% and 78.5% | viability, T/C (compound 0.316 µM): 82.5% and 70.2% | viability, T/C (compound 1 µM): 92.6% and 93.4% | viability, T/C (compound 3.16 µM): 82.5% and 81.2% | viability, T/C (compound 10 µM): 19.6% and 30.2% | IC50 (curve of compound): 5740 nM and 6430 nM

CCc1c2c(nc3ccc(O)cc13)-c1cc3c(c(=O)n1C2)COC(=O)[C@]3(O)CC + CNC(=O)c1ccc(Nc2nc(OC3CCCC3)c3c(-c4ccc5nc(C)oc5c4)c[nH]c3n2)c(OC)c1
IC50 [1]: 19.6 nM | IC50 [2]: 12.6 nM | IC50 [3]: 5.05 nM | IC50 [4]: < 3.16 nM | IC50 [5]: < 3.16 nM | IC50 [6]: < 3.16 nM | viability, T/C (second compound 0.0316 µM, first compound 0.00316 µM): 93.6% | viability, T/C (second compound 0.0316 µM, first compound 0.01 µM): 70.8% | viability, T/C [7]: 35.2% | viability, T/C [8]: 12.7% | viability, T/C [9]: 5.19% | viability, T/C [10]: 1.82% | viability, T/C (second compound 0.1 µM, first compound 0.00316 µM): 76% | viability, T/C (second compound 0.1 µM, first compound 0.01 µM): 58.4% | viability, T/C [11]: 17.6% | viability, T/C [12]: 8.93% | viability, T/C [13]: 5.07% | viability, T/C [14]: 2.28% | viability, T/C (second compound 0.316 µM, first compound 0.00316 µM): 69.5% | viability, T/C (second compound 0.316 µM, first compound 0.01 µM): 21.2% | viability, T/C [15]: 8.24% | viability, T/C [16]: 5.13% | viability, T/C [17]: 3.51% | viability, T/C [18]: 3.02% | viability, T/C (second compound 1 µM, first compound 0.00316 µM): 29.4% | viability, T/C (second compound 1 µM, first compound 0.01 µM): 9.85% | viability, T/C [19]: 4.94% | viability, T/C [20]: 3.94% | viability, T/C [21]: 3.17% | viability, T/C [22]: 2.15% | viability, T/C (second compound 3.16 µM, first compound 0.00316 µM): 23% | viability, T/C (second compound 3.16 µM, first compound 0.01 µM): 7.75% | viability, T/C [23]: 4.05% | viability, T/C [24]: 3.95% | viability, T/C [25]: 3.63% | viability, T/C [26]: 1.54% | viability, T/C (second compound 10 µM, first compound 0.00316 µM): 18.5% | viability, T/C (second compound 10 µM, first compound 0.01 µM): 7.14% | viability, T/C [27]: 4.31% | viability, T/C [28]: 3.19% | viability, T/C [29]: 3.1% | viability, T/C [30]: 2.01%

Reference: PubChem BioAssay AID2060622 (Molecular Pharmacology Branch, DTP, NCI, 2025)
